Patent publication EP2406206B1, “TETRAHYDRONAPHTHALEN-2-OL DERIVATIVES” (MSD Oss B.V., priority 2009, dated 2010)
pEC50: −log10 of the molar value.

Experiments:
[1] = biological target: human estrogen receptor β receptor (hERβ) (Homo sapiens, UniProt Q92731); assay: ERβ transactivation bioassay in recombinant CHO cells (rat oxytocin promoter, luciferase reporter); format: cell-based; conditions: for ERβ/ERα ratio: ERβ agonistic selectivity over ERα, transactivation data; for ERβ eudismic ratio: ratio of the activities of the eutomer and the distomer on ERβ; for pEC50: transactivation of luciferase via hERβ in CHO cells, read-out: ERβ agonistic EC50
Chain of human estrogen receptor β receptor (hERβ) (Q92731 whole entry): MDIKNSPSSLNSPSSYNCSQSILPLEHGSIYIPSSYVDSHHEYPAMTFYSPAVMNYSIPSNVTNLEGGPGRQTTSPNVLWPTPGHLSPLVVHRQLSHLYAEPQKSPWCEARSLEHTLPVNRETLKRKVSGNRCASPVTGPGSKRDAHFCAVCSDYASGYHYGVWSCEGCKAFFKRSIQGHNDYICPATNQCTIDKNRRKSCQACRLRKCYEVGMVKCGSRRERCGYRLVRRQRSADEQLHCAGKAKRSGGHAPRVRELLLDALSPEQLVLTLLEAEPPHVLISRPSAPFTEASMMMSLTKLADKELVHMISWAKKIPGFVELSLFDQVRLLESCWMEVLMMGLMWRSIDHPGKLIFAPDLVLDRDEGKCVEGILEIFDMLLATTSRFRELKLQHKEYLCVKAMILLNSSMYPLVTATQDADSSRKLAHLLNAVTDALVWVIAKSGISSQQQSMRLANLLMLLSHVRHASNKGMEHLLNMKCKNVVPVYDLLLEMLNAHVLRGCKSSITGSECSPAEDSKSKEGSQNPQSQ
Method: (§1) The estrogenic and antiestrogenic activity of compounds was determined in an in vitro bioassay with recombinant Chinese hamster ovary (CHO) cells stably co-transfected with the human estrogen receptor α (hERα) or β receptor (hERβ), the rat oxytocin promoter (RO) and the luciferase reporter gene (LUC). The estrogenic activity of a test compound to stimulate the transactivation of the enzyme luciferase mediated via the estrogen receptors hERα or hERβ is expressed in nM. The assay was performed as described by De Gooyer et al., Steroids 68 (2003), 21-30. Table 7. ERβ and ERα transactivation data

[2] = biological target: T1, human estrogen receptor α (hERα) (Homo sapiens, UniProt P03372); assay: ERα transactivation bioassay in recombinant CHO cells (rat oxytocin promoter, luciferase reporter); format: cell-based; conditions: ratio of the activities of the eutomer and the distomer on ERα
T1 sequence (P03372 1-595): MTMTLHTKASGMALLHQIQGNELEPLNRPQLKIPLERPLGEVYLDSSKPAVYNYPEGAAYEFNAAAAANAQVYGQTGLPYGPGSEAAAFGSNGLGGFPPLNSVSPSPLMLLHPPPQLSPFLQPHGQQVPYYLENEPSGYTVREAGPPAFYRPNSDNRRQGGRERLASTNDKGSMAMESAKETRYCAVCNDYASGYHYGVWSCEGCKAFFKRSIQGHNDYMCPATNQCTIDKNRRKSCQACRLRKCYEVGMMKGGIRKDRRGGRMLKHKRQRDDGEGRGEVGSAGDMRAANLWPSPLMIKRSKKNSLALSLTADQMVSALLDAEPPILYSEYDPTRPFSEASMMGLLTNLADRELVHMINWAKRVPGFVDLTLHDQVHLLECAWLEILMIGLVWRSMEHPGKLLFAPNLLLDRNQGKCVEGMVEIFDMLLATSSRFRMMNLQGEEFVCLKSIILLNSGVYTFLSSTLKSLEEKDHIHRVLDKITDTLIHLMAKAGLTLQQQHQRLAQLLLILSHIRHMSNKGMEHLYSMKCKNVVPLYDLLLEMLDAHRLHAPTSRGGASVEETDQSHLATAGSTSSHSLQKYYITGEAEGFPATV
Method: as §1

[3] = tested on: acinar epithelium of the ventral prostate; assay: short-term prostate apoptosis and proliferation model in castrated rats; format: in vivo, Wistar rats
Method: Selected compounds were tested in a short-term prostate apoptosis and proliferation model in castrated rats.
Intact mature male Wistar rats (350-400 g) were castrated and left to recover for 1 week. 7 days after the castration rats received a single subcutaneous injection of testosterone buciclate (TB), a long-acting testosterone ester, in arachis oil (20 mg/kg) with a volume of 1 ml/kg and were subsequently treated once daily orally for 3 days with the test substance at doses between 0 and 1000 µg/kg, dissolved in gelatin/mannitol and dosed with a volume of 1 ml/kg.
At the end of the experiment rats were euthanized, the prostates were removed, weighed and processed for histology.
Apoptosis of the acinar epithelium of the ventral prostate was determined with TUNEL ([…]) staining. Apoptotic cells show nuclear DNA fragmentation and the TUNEL assay end-labels the fragmented DNA by incorporating biotinylated dUTP at the 3'-OH DNA ends using the enzyme Terminal deoxynucleotidyl Transferase (TdT). Positively stained cells are counted per acinus (glandular unit) in the ventral prostate. Proliferation of the acinar epithelium of the ventral prostate was determined by immunohistochemical staining with an antibody directed against Ki67 (clone Mib5). Positively stained cells are counted per acinus (glandular unit) in the ventral prostate. Statistical significance is determined as compared to TB alone by one-way ANOVA.

[4] = metabolic stability in human hepatocytes; format: in vitro ADME; conditions: cryopreserved human hepatocytes in suspension, tetrahydronaphthalen-2-ol, 37°C, sampled 0-120 min, LC-MS/MS, read-out: Human hepatocyte T1/2
Method: A number of compounds 9, 11 and 12 were tested on metabolic stability in human hepatocytes. The hepatic stability was compared to corresponding chroman compounds 25, 26 or 27 (see structures below).
Test compounds were diluted to 3 µM in incubation medium. Then 40 µl of the 3 µM test compounds was pipetted into a 96 well microtiter plate (flat bottom). Hepatocytes (stored at -140 °C) were thawed in a 37°C water bath. The cells were resuspended into pre-warmed thawing medium and were centrifuged for 5 minutes at 50g at room temperature. The supernatant was discarded and the remaining cell pellet was resuspended in warm incubation medium and diluted to 7.5 E5 cells/ml. Then 80 µl of the cell suspension was added to each well of the 96 well microtiter plate containing the test compounds. The resulting mixture was incubated at 37°C and was sampled at t=0, 5, 30, 60, and 120 min. The samples were analyzed by LC-MS/MS to determine the content of unchanged test compound. Based on the rate of reduction of the content of test compound over time, the half-live (T1/2) was calculated. Metabolic stability in human hepatocytes

SMILES	ERβ/ERα ratio [1]	ERβ eudismic ratio [1]	pEC50 [1]	ERα eudismic ratio [2]	epithelial cell proliferation ([3]; Ki67 staining, ventral prostate, at 3 µg/kg orally, compared to TB-alone treated rats)	epithelial cell apoptosis ([3]; TUNEL staining, ventral prostate, castrated rats given TB, treated once daily orally for 3 days, compared to TB alone)	minimal active dose (MAD) ([3]; increase in epithelial cell apoptosis, once daily orally for 3 days) [µg/kg]	half-life at 1 µM [4] [min]
C[C@H]1[C@@H](c2ccc(O)cc2)Cc2ccc(O)cc2[C@H]1Cc1ccccc1F (single isomer, unassigned) [Compound 11a]	189	>263	9.42	>1.4	decrease	statistically significant (p<0.01) increase	3	40.5
CC[C@H]1[C@@H](c2ccc(O)cc2)Cc2ccc(O)cc2[C@H]1Cc1ccccc1F (single isomer, unassigned) [Compound 11b]	167	93	9.82	0.9	–	–	–	40.7
CC[C@H]1[C@@H](c2ccc(O)c(F)c2)Cc2ccc(O)cc2[C@H]1Cc1ccccc1F (single isomer, unassigned) [Compound 11q]	>169	7	9.23	<0.3	–	–	–	82.2
